This is an account of results in patent publication US8933094B2, “Ethynyl compounds useful for treatment of CNS disorder” (Hoffmann-La Roche Inc., priority 2009, dated 2015).

In this experiment the target is T1, human mGlu5a receptor (Homo sapiens, UniProt P41594).
T1 construct: expressed in transfected cells
The experiment in a line: Intracellular Ca2+ mobilization assay (mGlu5 PAM). The following applies: for EC50: HEK-293 cells stably transfected with human mGlu5a, L-glutamate added at EC20 after 10-30 min pre-incubation with test compound, read-out: EC50 (nM) mGlu5PAM; for Emax: maximal response in % of the maximal stimulatory effect obtained with saturating concentrations of L-glutamate, read-out: Eff. (%). It is filed as cell-based. How it is done: A monoclonal HEK-293 cell line stably transfected with a cDNA encoding for the human mGlu5a receptor was generated; for the work with mGlu5 Positive Allosteric Modulators (PAMs), a cell line with low receptor expression levels and low constitutive receptor activity was selected to allow the differentiation of agonistic versus PAM activity. Cells were cultured according to standard protocols (Freshney, 2000) in Dulbecco's Modified Eagle Medium with high glucose supplemented with 1 mM glutamine, 10% (vol/vol) heat-inactivated bovine calf serum, Penicillin/Streptomycin, 50 μg/ml hygromycin and 15 μg/ml blasticidin (all cell culture reagents and antibiotics from Invitrogen, Basel, Switzerland).
About 24 hrs before an experiment, 5×10^4 cells/well were seeded in poly-D-lysine coated, black/clear-bottomed 96-well plates. The cells were loaded with 2.5 μM Fluo-4AM in loading buffer (1×HBSS, 20 mM HEPES) for 1 hr at 37° C. and washed five times with loading buffer. The cells were transferred into a Functional Drug Screening System 7000 (Hamamatsu, Paris, France), and 11 half logarithmic serial dilutions of test compound at 37° C. were added and the cells were incubated for 10-30 min. with on-line recording of fluorescence. Following this pre-incubation step, the agonist L-glutamate was added to the cells at a concentration corresponding to EC20 (typically around 80 μM) with on-line recording of fluorescence; in order to account for day-to-day variations in the responsiveness of cells, the EC20 of glutamate was determined immediately ahead of each experiment by recording of a full dose-response curve of glutamate.
Responses were measured as peak increase in fluorescence minus basal (i.e. fluorescence without addition of L-glutamate), normalized to the maximal stimulatory effect obtained with saturating concentrations of L-glutamate. Graphs were plotted with the % maximal stimulatory using XLfit, a curve fitting program that iteratively plots the data using Levenburg Marquardt algorithm. The single site competition analysis equation used was y=A+((B−A)/(1+((x/C)D))), where y is the % maximal stimulatory effect, A is the minimum y, B is the maximum y, C is the EC50, x is the log 10 of the concentration of the competing compound and D is the slope of the curve (the Hill Coefficient). From these curves the EC50 (concentration at which half maximal stimulation was achieved), the Hill coefficient as well as the maximal response in % of the maximal stimulatory effect obtained with saturating concentrations of L-glutamate were calculated.
A depression of the signal observed after addition of the EC20 concentration of L-glutamate was indicative of an inhibitory activity of the test compound.

Molecules are shown by their SMILES.

T1 sequence (P41594 21-1180 isoform P41594-2 limits assumed): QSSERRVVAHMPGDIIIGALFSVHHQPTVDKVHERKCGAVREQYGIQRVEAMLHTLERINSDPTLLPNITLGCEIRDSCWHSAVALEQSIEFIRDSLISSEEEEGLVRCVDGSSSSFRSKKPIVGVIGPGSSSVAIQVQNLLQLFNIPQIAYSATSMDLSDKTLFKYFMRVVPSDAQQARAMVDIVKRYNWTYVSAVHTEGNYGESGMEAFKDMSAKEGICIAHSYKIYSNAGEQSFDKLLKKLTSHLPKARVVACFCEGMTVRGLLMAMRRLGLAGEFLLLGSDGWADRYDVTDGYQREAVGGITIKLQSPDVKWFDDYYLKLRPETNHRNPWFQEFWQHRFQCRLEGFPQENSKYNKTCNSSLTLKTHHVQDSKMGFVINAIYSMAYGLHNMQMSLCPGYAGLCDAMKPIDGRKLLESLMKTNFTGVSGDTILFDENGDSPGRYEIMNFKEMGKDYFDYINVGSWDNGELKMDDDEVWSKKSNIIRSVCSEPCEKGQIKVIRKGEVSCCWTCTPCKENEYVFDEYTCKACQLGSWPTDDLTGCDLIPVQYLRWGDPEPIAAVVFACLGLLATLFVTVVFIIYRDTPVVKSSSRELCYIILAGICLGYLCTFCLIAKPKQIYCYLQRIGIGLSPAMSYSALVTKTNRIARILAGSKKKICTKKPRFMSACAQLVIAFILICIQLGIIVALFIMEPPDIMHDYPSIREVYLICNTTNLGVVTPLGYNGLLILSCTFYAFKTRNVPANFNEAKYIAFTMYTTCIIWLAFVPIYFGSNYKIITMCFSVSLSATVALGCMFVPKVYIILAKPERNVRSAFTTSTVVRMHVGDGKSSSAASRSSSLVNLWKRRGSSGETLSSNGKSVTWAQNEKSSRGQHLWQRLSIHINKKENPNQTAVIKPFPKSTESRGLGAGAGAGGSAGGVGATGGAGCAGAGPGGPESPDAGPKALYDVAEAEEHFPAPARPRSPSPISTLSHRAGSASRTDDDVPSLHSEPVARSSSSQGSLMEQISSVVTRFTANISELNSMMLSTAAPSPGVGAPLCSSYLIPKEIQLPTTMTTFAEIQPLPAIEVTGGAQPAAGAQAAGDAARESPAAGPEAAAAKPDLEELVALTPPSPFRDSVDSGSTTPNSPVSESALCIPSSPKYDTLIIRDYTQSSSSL

On to `C(#Cc1cnc2ccnn2c1)c1ccccc1` [Example 1, 6-Phenylethynyl-pyrazolo[1,5-a]pyrimidine], for which the EC50 stood at 70 nM and the Emax stood at 116%.

For the molecule `Cc1cc2ncc(C#Cc3ccccc3)cn2n1` [Example 2, 2-Methyl-6-phenylethynyl-pyrazolo[1,5-a]pyrimidine], the EC50 worked out at 49 nM and the Emax came out at 99%.

For the molecule `Cc1cc2ncc(C#Cc3ccccc3F)cn2n1` [Example 3, 6-(2-Fluoro-phenylethynyl)-2-methyl-pyrazolo[1,5-a]pyrimidine], the EC50 was 47 nM and the Emax worked out at 81%.

Consider `Cc1cc2ncc(C#Cc3cccc(F)c3)cn2n1` [Example 4, 6-(3-Fluoro-phenylethynyl)-2-methyl-pyrazolo[1,5-a]pyrimidine], for which the EC50 is 42 nM and the Emax came to 77%.

For the molecule `Cc1cc2ncc(C#Cc3ccc(F)cc3)cn2n1` [Example 5, 6-(4-Fluoro-phenylethynyl)-2-methyl-pyrazolo[1,5-a]pyrimidine], the EC50 came to 78 nM and the Emax was found to be 74%.

Regarding `Cc1cc2ncc(C#Cc3ccncc3)cn2n1` [Example 6, 2-Methyl-6-pyridin-4-ylethynyl-pyrazolo[1,5-a]pyrimidine], the concentration for a half-maximal effect (EC50) amounted to 498 nM and the Emax amounted to 82%.

For the molecule `Cc1ccc(C#Cc2cnc3cc(C)nn3c2)cc1` [Example 7, 2-Methyl-6-p-tolylethynyl-pyrazolo[1,5-a]pyrimidine], the EC50 came to 132 nM and the Emax was 73%.

For the molecule `Cc1cc2ncc(C#Cc3ccc(Cl)cc3)cn2n1` [Example 8, 6-(4-Chloro-phenylethynyl)-2-methyl-pyrazolo[1,5-a]pyrimidine], the EC50 amounted to 148 nM and the Emax stood at 69%.

`CC(C)(C)c1cc2ncc(C#Cc3ccccc3)cn2n1` [Example 9, 2-tert-Butyl-6-phenylethynyl-pyrazolo[1,5-a]pyrimidine]: the EC50 came out at 5 nM and the Emax worked out at 75%.

Take `CC(C)(C)c1cc2ncc(C#Cc3ccccc3F)cn2n1` [Example 10, 2-tert-Butyl-6-(2-fluoro-phenylethynyl)-pyrazolo[1,5-a]pyrimidine]: the concentration for a half-maximal effect (EC50) stood at 19 nM and the Emax turned out to be 80%.

In the case of `CC(C)(C)c1cc2ncc(C#Cc3cccc(F)c3)cn2n1` [Example 11, 2-tert-Butyl-6-(3-fluoro-phenylethynyl)-pyrazolo[1,5-a]pyrimidine], the EC50 was determined as 5 nM and the Emax amounted to 86%.

`CC(C)(C)c1cc2ncc(C#Cc3ccc(F)cc3)cn2n1` [Example 12, 2-tert-Butyl-6-(4-fluoro-phenylethynyl)-pyrazolo[1,5-a]pyrimidine]: the EC50 is 7 nM and the Emax was 75%.

Turning to `CC(C)(C)c1cc2ncc(C#Cc3cccnc3)cn2n1` [Example 13, 2-tert-Butyl-6-pyridin-3-ylethynyl-pyrazolo[1,5-a]pyrimidine], the EC50 was found to be 33 nM and the Emax worked out at 88%.

As to `CC(C)(C)c1cc2ncc(C#Cc3ccncc3)cn2n1` [Example 14, 2-tert-Butyl-6-pyridin-4-ylethynyl-pyrazolo[1,5-a]pyrimidine], the EC50 turned out to be 4 nM and the Emax is 37%.

For `COc1ccc(C#Cc2cnc3cc(C(C)(C)C)nn3c2)cc1` [Example 15, 2-tert-Butyl-6-(4-methoxy-phenylethynyl)-pyrazolo[1,5-a]pyrimidine], the EC50 came to 68 nM and the Emax turned out to be 53%.

For `Cc1cccc(C#Cc2cnc3cc(C(C)(C)C)nn3c2)c1` [Example 16, 2-tert-Butyl-6-m-tolylethynyl-pyrazolo[1,5-a]pyrimidine], the EC50 was 100 nM and the Emax is 50%.

With `COc1cccc(C#Cc2cnc3cc(C(C)(C)C)nn3c2)c1` [Example 17, 2-tert-Butyl-6-(3-methoxy-phenylethynyl)-pyrazolo[1,5-a]pyrimidine], the EC50 came to 104 nM and the Emax was 41%.

Take `C(#Cc1cnc2cc(C3CCC3)nn2c1)c1ccccc1` [Example 18, 2-Cyclobutyl-6-phenylethynyl-pyrazolo[1,5-a]pyrimidine]: the EC50 was found to be 182 nM and the Emax is 102%.

`Cc1ccc(C#Cc2cnc3cc(C(C)(C)C)nn3c2)cc1` [Example 19, 2-tert-Butyl-6-p-tolylethynyl-pyrazolo[1,5-a]pyrimidine]: the EC50 turned out to be 100 nM and the Emax worked out at 68%.

In the case of `CC(C)(C)c1cc2ncc(C#Cc3ccc(Cl)cc3)cn2n1` [Example 20, 2-tert-Butyl-6-(4-chloro-phenylethynyl)-pyrazolo[1,5-a]pyrimidine], the EC50 was determined as 400 nM and the Emax turned out to be 89%.

On to `CC(C)(C)c1cc2ncc(C#Cc3ccc(Cl)nc3)cn2n1` [Example 21, 2-tert-Butyl-6-(6-chloro-pyridin-3-ylethynyl)-pyrazolo[1,5-a]pyrimidine], for which the EC50 is 183 nM and the Emax is 77%.

As for `CC(C)(C)c1cc2ncc(C#Cc3ccc(N)nc3)cn2n1` [Example 22, 5-(2-tert-Butyl-pyrazolo[1,5-a]pyrimidin-6-ylethynyl)-pyridin-2-ylamine], the concentration for a half-maximal effect (EC50) came out at 255 nM and the Emax was 98%.

In the case of `CC(C)(C)c1cc2ncc(C#Cc3cncc(Cl)c3)cn2n1` [Example 23, 2-tert-Butyl-6-(5-chloro-pyridin-3-ylethynyl)-pyrazolo[1,5-a]pyrimidine], the EC50 turned out to be 34 nM and the Emax amounted to 59%.

In the case of `CC(C)(C)c1cc2ncc(C#Cc3cncnc3)cn2n1` [Example 24, 2-tert-Butyl-6-pyrimidin-5-ylethynyl-pyrazolo[1,5-a]pyrimidine], the EC50 worked out at 181 nM and the Emax turned out to be 68%.

`CC(C)(C)c1cc2ncc(C#Cc3ccc(F)c(F)c3)cn2n1` [Example 25, 2-tert-Butyl-6-(3,4-difluoro-phenylethynyl)-pyrazolo[1,5-a]pyrimidine]: the EC50 was 45 nM and the Emax was 93%.

Take `C(#Cc1cnc2cc(C3CCOCC3)nn2c1)c1ccccc1` [Example 26, 6-Phenylethynyl-2-(tetrahydro-pyran-4-yl)-pyrazolo[1,5-a]pyrimidine]: the EC50 is 472 nM and the Emax stood at 124%.

Take `CC(C)(C)c1cc2ncc(C#Cc3ccc(N)cc3)cn2n1` [Example 27, 4-(2-tert-Butyl-pyrazolo[1,5-a]pyrimidin-6-ylethynyl)-phenylamine]: the EC50 turned out to be 41 nM and the Emax is 99%.

Regarding `CC(C)(O)c1cc2ncc(C#Cc3ccccc3)cn2n1` [Example 28, 2-(6-Phenylethynyl-pyrazolo[1,5-a]pyrimidin-2-yl)-propan-2-ol], the EC50 was determined as 152 nM and the Emax was found to be 59%.

For `CC(C)(C)c1cc2ncc(C#Cc3cncc(F)c3)cn2n1` [Example 29, 2-tert-Butyl-6-(5-fluoro-pyridin-3-ylethynyl)-pyrazolo[1,5-a]pyrimidine], the concentration for a half-maximal effect (EC50) was 161 nM and the Emax was found to be 61%.

For `N#Cc1cnn2cc(C#Cc3ccccc3)cnc12` [Example 30, 6-Phenylethynyl-pyrazolo[1,5-a]pyrimidine-3-carbonitrile], the EC50 was determined as 310 nM and the Emax is 63%.

As to `C(#Cc1ccc2ncnn2c1)c1ccccc1` [Example 31, 6-Phenylethynyl-[1,2,4]triazolo[1,5-a]pyridine], the EC50 came out at 274 nM and the Emax is 123%.

Regarding `C(#Cc1cnc2ncnn2c1)c1ccccc1` [Example 32, 6-Phenylethynyl-[1,2,4]triazolo[1,5-a]pyrimidine], the EC50 was determined as 210 nM and the Emax worked out at 100%.

In the case of `C(#Cc1ccc2ccnn2c1)c1ccccc1` [Example 33, 6-Phenylethynyl-pyrazolo[1,5-a]pyridine], the EC50 stood at 136 nM and the Emax stood at 88%.

As to `C(#Cc1ccc2cnnn2c1)c1ccccc1` [Example 34, 6-Phenylethynyl-[1,2,3]triazolo[1,5-a]pyridine], the 50% effective concentration (EC50) was 50 nM and the Emax is 77%.

Turning to `CC(C)(C)c1cc2ncc(C#Cc3cccc(N)c3)cn2n1` [Example 35, 3-(2-tert-Butyl-pyrazolo[1,5-a]pyrimidin-6-ylethynyl)-phenylamine], the EC50 came out at 37 nM and the Emax came out at 69%.
